According to patent publication US20260071518A1, “SURFACTANT FOR CARBON DIOXIDE STORAGE” (TOTALENERGIES ONETECH, priority 2022, published 2026):

Tests used:
[1] = slim tube packed with sand, co-injection of carbon dioxide and surfactant-brine composition, apparent viscosity (Example 1); format: physicochemical; settings: 0.2 wt. % in 220 g/L NaCl brine, pH=6, 25° C., 150 bar, carbon dioxide fraction 50%, versus comparative surfactant compounds
Description: In this example, experiments were conducted within a slim tube packed with sand. The tube length was 25 cm, the tube diameter was 1 cm.
Various surfactant compositions were made by dissolving 0.2 wt. % of an individual surfactant compound in brine having a NaCl content of 220 g/L, buffered at pH=6 with a sodium acetate/acetic acid buffer.
Carbon dioxide and the surfactant-brine composition were co-injected into the slim tube via two separate inlets, at a temperature of 25° C. and at a pressure of 150 bar, with a total flow rate of 60 ft/day and a carbon dioxide fraction of 50%.
The pressure drop across the tube was measured and the apparent viscosity was calculated based on Darcy's law. Specifically, the apparent viscosity was obtained according to the following formula: (permeability×pressure gradient)/(volume flow/inlet area of the core (tube)).

[2] = carbonate core co-injection of carbon dioxide and surfactant-water composition, gas saturation and apparent viscosity (Example 4); format: physicochemical; settings: 0.2 wt. % in water, 110° C., 150 bar
Description: In this example, experiments were conducted using a carbonate core. The core was 30.1 cm long, having a diameter of 3.8 cm, a porosity of 28%, permeability of 130 md.
A surfactant-water composition was prepared by dissolving 0.2 wt. % of a surfactant compound (compound E of Example 1, N^1-dodecyl-N^3,N^3-dimethylpropane-1,3-diamine) in water.
Carbon dioxide and the surfactant-water composition were co-injected into the carbonate core via two separate inlets, at a temperature of 110° C. and at a pressure of 150 bar, with a total flow rate of 4 ft/day, varying the fraction of carbon dioxide from 50% to 95%. Carbon dioxide and water alone were also co-injected into the carbonate core under the same conditions.
The gas saturation in the core was measured by obtaining a mass balance between what is injected (water+CO2−pump control) and produced water measured by burette (volume) along with a scale (mass).
The apparent viscosity was calculated based on Darcy's law.

rise in apparent viscosity [1]: quicker and higher rise in viscosity | apparent viscosity of the resulting emulsion ([2]; CO2 fraction 50% to 95%, versus absence of surfactant): higher apparent viscosity | change of apparent viscosity with CO2 fraction ([2]; CO2 fraction increased from 50 to 95%): decreased | gas (CO2) saturation increase compared to absence of surfactant ([2]; at each CO2 fraction tested (50% to 95%)): 2-4 fold
SMILES: CCCCCCCCCCCCNCCCN(C)C [Compound E, N^1-dodecyl-N^3,N^3-dimethylpropane-1,3-diamine]
